These results are taken from publication PMC6008491, “Discovery of a novel allosteric inhibitor scaffold for polyadenosine-diphosphate-ribose polymerase 14 (PARP14) macrodomain 2” (Bioorganic & Medicinal Chemistry, 2018).

Assay [1] has as its target T1, PARP14 MD2 (Homo sapiens, UniProt Q460N5).
T1 sequence (Q460N5 1003-1190 limits assumed): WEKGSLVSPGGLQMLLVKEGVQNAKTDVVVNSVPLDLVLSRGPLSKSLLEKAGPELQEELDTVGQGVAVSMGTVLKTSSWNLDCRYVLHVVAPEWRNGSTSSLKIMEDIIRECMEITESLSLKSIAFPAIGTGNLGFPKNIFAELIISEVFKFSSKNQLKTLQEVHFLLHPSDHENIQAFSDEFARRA
Briefly: Biophysical KD determination (Bio-Layer Interferometry or Isothermal Titration Calorimetry). In kind it is binding. Set-up: PARP14 MD2 (second MD of PARP14). The source says:
(§1) Compounds were profiled for binding activity with PARP14 MD2 through a competitive (AlphaScreen™) binding assay measuring the displacement of ADP-ribose peptide from PARP14 MD2.[11a]
A general note: Biolayer interferometry detects binding as a change in optical thickness at a sensor tip.

Assay [2] deals with T1, PARP14 MD2. Briefly: AlphaScreen competitive binding assay, displacement of ADP-ribose peptide from PARP14 MD2. Particulars: AlphaScreen, PARP14 MD2, read-out: IC50. More on the design: PARP14 MD2 (second MD of PARP14).
Text: as §1
In general terms: Alpha assays give light when donor and acceptor beads are brought close together.

Assay [3] concerns the target T1, PARP14 MD2. Put plainly: BioLayer Interferometry (BLI).

The structures appear in SMILES notation. Where two headings read alike, the source gives them in different places. A value given as a limit tells only on which side of the number the result lay.

As usually defined, the Kd is the free concentration of one partner at which half of the binding sites on the other are occupied at equilibrium, for simple one-to-one binding. On to `CS(=O)(=O)Nc1cc(C#N)ccc1-c1cccc2c1[nH]c1ccccc12` [compound 56, N-(2-(9H-Carbazol-1-yl)-5-cyanophenyl)methanesulfonamide], for which the Kd on PARP14 MD2 [1] (Table 1, BLI or ITC) came out at 5.2 ± 1.7 µM.
Usually IC50 stands for the concentration that inhibits the measured activity by half. For the molecule `CC(=O)Nc1cccc(C)c1-c1cccc2c1[nH]c1ccccc12` [compound 57, N-(2-(9H-Carbazol-1-yl)-3-methylphenyl)acetamide], on PARP14 MD2 [2] (Table 1), the IC50 turned out to be 1.7 ± 0.1 µM. In addition, at PARP14 MD2 [1] (Table 1, BLI or ITC), binding was put at a Kd of 1.6 ± 0.7 µM.
Take `COc1ccc(C(=O)Nc2ccccc2-c2cccc3c2[nH]c2ccccc23)cc1` [compound 82, N-(2-(9H-Carbazol-1-yl)phenyl)-4-methoxybenzamide]: on PARP14 MD2 [2] (Table 1), the IC50 was determined as 9 ± 1.4 µM.
In the case of `O=C(Cc1cccnc1)Nc1ccccc1-c1cccc2c1[nH]c1ccccc12` [compound 83, N-(2-(9H-Carbazol-1-yl)phenyl)-2-(pyridin-3-yl)acetamide], on PARP14 MD2 [2] (Table 2), the IC50 amounted to 1.1 µM. This molecule came in with a Kd at PARP14 MD2 [1] (Table 2, BLI or ITC) of 1.5 µM.
The like results for `Cc1ccc(CC(=O)Nc2ccccc2-c2cccc3c2[nH]c2ccccc23)cn1` [compound 84, N-(2-(9H-Carbazol-1-yl)phenyl)-2-(6-methylpyridin-3-yl)acetamide] were, in that order, 1 µM and 2.7 µM.
`O=C(Cc1cnccn1)Nc1ccccc1-c1cccc2c1[nH]c1ccccc12` [compound 85, N-(2-(9H-Carbazol-1-yl)phenyl)-2-(pyrazin-2-yl)acetamide]: the IC50 on PARP14 MD2 [2] (Table 2) turned out to be 2.1 ± 0.1 µM. On PARP14 MD2 [1] (Table 2, BLI or ITC), this molecule gave a Kd of 3.9 µM.
As for `N#Cc1cc(CC(=O)Nc2ccccc2-c2cccc3c2[nH]c2ccccc23)ccn1` [compound 86, N-(2-(9H-Carbazol-1-yl)phenyl)-2-(2-cyanopyridin-4-yl)acetamide], the half-inhibitory concentration (IC50) on PARP14 MD2 [2] (Table 2) stood at 2.4 ± 0.2 µM.
Same read-out and setting: under `N#Cc1ccc(CC(=O)Nc2ccccc2-c2cccc3c2[nH]c2ccccc23)cn1` [compound 87, N-(2-(9H-Carbazol-1-yl)phenyl)-2-(6-cyanopyridin-3-yl)acetamide] stands 3.5 ± 0.2 µM.
The same measure, in the same setting: under `O=C(Cc1ccc(=O)[nH]c1)Nc1ccccc1-c1cccc2c1[nH]c1ccccc12` [compound 88, N-(2-(9H-Carbazol-1-yl)phenyl)-2-(6-oxo-1,6-dihydropyridin-3-yl)acetamide] stands 6.6 ± 0.4 µM; under `O=S(=O)(Cc1ccccc1F)Nc1ccccc1-c1cccc2c1[nH]c1ccccc12` [compound 89, N-(2-(9H-Carbazol-1-yl)phenyl)-1-(2-fluorophenyl)methanesulfonamide], 2.4 ± 0.1 µM.
Same read-out and setting: under `O=C(Cc1ccccc1F)Nc1ccccc1-c1cccc2c1[nH]c1ccccc12` [compound 90, N-(2-(9H-Carbazol-1-yl)phenyl)-2-(2-fluorophenyl)acetamide] stands 2.8 ± 0.2 µM.
As to `O=C(Cc1ccccc1Cl)Nc1ccccc1-c1cccc2c1[nH]c1ccccc12` [compound 91, N-(2-(9H-Carbazol-1-yl)phenyl)-2-(2-chlorophenyl)acetamide], the IC50 on PARP14 MD2 [2] (Table 2) was found to be 4.4 ± 0.3 µM.
On the same count and under the same terms, under `Cc1ccc(CC(=O)Nc2ccccc2-c2cccc3c2[nH]c2ccccc23)cc1` [compound 92, N-(2-(9H-Carbazol-1-yl)phenyl)-2-(p-tolyl)acetamide] stands 8.7 ± 1.2 µM; under `O=C(Cc1ccc(F)cc1)Nc1ccccc1-c1cccc2c1[nH]c1ccccc12` [compound 93, N-(2-(9H-Carbazol-1-yl)phenyl)-2-(4-fluorophenyl)acetamide], over 50 µM; under `COc1ccc(CC(=O)Nc2ccccc2-c2cccc3c2[nH]c2ccccc23)cc1` [compound 94, N-(2-(9H-Carbazol-1-yl)phenyl)-2-(4-methoxyphenyl)acetamide], 6.2 ± 0.6 µM.
With `N#Cc1ccc(CS(=O)(=O)Nc2ccccc2-c2cccc3c2[nH]c2ccccc23)cc1` [compound 95, N-(2-(9H-Carbazol-1-yl)phenyl)-1-(4-cyanophenyl)methanesulfonamide], the IC50 at PARP14 MD2 [2] (Table 2) was 6.2 ± 0.6 µM.
On the same count and under the same terms, under `O=C(Cc1ccc(Cl)cc1)Nc1ccccc1-c1cccc2c1[nH]c1ccccc12` [compound 96, N-(2-(9H-Carbazol-1-yl)phenyl)-2-(4-chlorophenyl)acetamide] stands 6.2 ± 0.6 µM; under `O=S(=O)(Cc1ccc(C(F)(F)F)cc1)Nc1ccccc1-c1cccc2c1[nH]c1ccccc12` [compound 97, N-(2-(9H-Carbazol-1-yl)phenyl)-1-(4-(trifluoromethyl)phenyl)methanesulfonamide], 8.1 ± 0.7 µM; under `COc1ccc(CC(=O)Nc2ccccc2-c2cccc3c2[nH]c2ccccc23)cc1OC` [compound 98, N-(2-(9H-Carbazol-1-yl)phenyl)-2-(3,4-dimethoxyphenyl)acetamide], 4.3 ± 0.3 µM.
Same read-out and setting: under `O=C(Cc1ccc2c(c1)OCO2)Nc1ccccc1-c1cccc2c1[nH]c1ccccc12` [compound 99, N-(2-(9H-Carbazol-1-yl)phenyl)-2-(benzo[d][1,3]dioxol-5-yl)acetamide] stands 6.9 ± 0.6 µM.
In the case of `N#Cc1ccc(F)c(CS(=O)(=O)Nc2ccccc2-c2cccc3c2[nH]c2ccccc23)c1` [compound 100, N-(2-(9H-Carbazol-1-yl)phenyl)-1-(5-cyano-2-fluorophenyl)methanesulfonamide], the IC50 on PARP14 MD2 [2] (Table 2) was found to be 1.2 µM. The molecule also had a Kd at PARP14 MD2 [1] (Table 2, BLI or ITC) of 1.3 µM.
For the molecule `Cc1ccc(C)c(CC(=O)Nc2ccccc2-c2cccc3c2[nH]c2ccccc23)c1` [compound 101, N-(2-(9H-Carbazol-1-yl)phenyl)-2-(2,5-dimethylphenyl)acetamide], at PARP14 MD2 [2] (Table 2), the IC50 worked out at 44.6 ± 10.4 µM.
Regarding `O=C(Cc1ccc(Cl)c(Cl)c1)Nc1ccccc1-c1cccc2c1[nH]c1ccccc12` [compound 102, N-(2-(9H-Carbazol-1-yl)phenyl)-2-(3,4-dichlorophenyl)acetamide], at PARP14 MD2 [2] (Table 2), the IC50 was 6.3 ± 0.6 µM.
The same measure, in the same setting: under `COc1cccc(CC(=O)Nc2ccccc2-c2cccc3c2[nH]c2ccccc23)c1` [compound 103, N-(2-(9H-Carbazol-1-yl)phenyl)-2-(3-methoxyphenyl)acetamide] stands 6.6 ± 0.5 µM; under `O=C(Cc1cccc(F)c1)Nc1ccccc1-c1cccc2c1[nH]c1ccccc12` [compound 104, N-(2-(9H-Carbazol-1-yl)phenyl)-2-(3-fluorophenyl)acetamide], 4.2 ± 0.3 µM.
As for `O=S(=O)(Cc1cccc(F)c1)Nc1ccccc1-c1cccc2c1[nH]c1ccccc12` [compound 105, N-(2-(9H-Carbazol-1-yl)phenyl)-1-(3-fluorophenyl)methanesulfonamide], the IC50 at PARP14 MD2 [2] (Table 2) was 1.4 ± 0.1 µM.
Take `O=C(Cc1cccc(C(F)(F)F)c1)Nc1ccccc1-c1cccc2c1[nH]c1ccccc12` [compound 106, N-(2-(9H-Carbazol-1-yl)phenyl)-2-(3-(trifluoromethyl)phenyl)acetamide]: at PARP14 MD2 [2] (Table 2), the IC50 was determined as 7.1 ± 0.7 µM.
On the same count and under the same terms, under `N#Cc1cccc(CC(=O)Nc2ccccc2-c2cccc3c2[nH]c2ccccc23)c1` [compound 107, N-(2-(9H-Carbazol-1-yl)phenyl)-2-(3-cyanophenyl)acetamide] stands 2.1 ± 0.1 µM.
Regarding `N#Cc1cccc(CS(=O)(=O)Nc2ccccc2-c2cccc3c2[nH]c2ccccc23)c1` [compound 108, N-(2-(9H-Carbazol-1-yl)phenyl)-1-(3-cyanophenyl)methanesulfonamide], the dissociation constant (Kd) was 0.55 µM on PARP14 MD2 [3] (read-out: KD (BLI)); 0.55 µM on PARP14 MD2 [3] (read-out: calculated KD (BLI)); 0.55 µM on PARP14 MD2 [1] (Table 2, BLI or ITC). Further, the IC50 at PARP14 MD2 [2] (Table 2) was 0.66 ± 0.03 µM.
